Measurements as given in patent US7037901B1, “Radiosensitization by indolocarbazole derivatives” (priority 2001, dated 2006).

Experiments:
[1] = system: human breast cancer MCF-7 cells; assay: Clonogenic survival assay with radiation (radiosensitization) in MCF-7 cells; format: cell-based; conditions: for ER (SER per footnote c, sensitization enhancement ratio): 2 μg/ml 1 h before radiation, at 10% survival; for Dq (width of the shoulder of the radiation survival curve): SHMT model fit, FIG. 3B; for Induction of RS / enhancement of radiocytotoxicity: one-hour preincubation with 2 μg/ml, FIG. 2; for RT dose (Gy) at 10% survival: pre-treated 2 μg/ml 1 h, rinsed, then radiation; for Enhancement of radiocytotoxicity: 10 μg/ml (data not shown)
Experimental: (§1) Clonogenic Survival Assay. […] 18–24 h prior to experimental studies.
(§2) Colonies consisting of >50 cells were counted.
Irradiation of Cells. Drug-treated and control cells in medium were irradiated using a cobalt-60 source (Eldorado 8; Theratronics, Canada) at a dose rate of 105 cGy/min.
Analysis of Survival Curves. Survival curves were corrected for cytotoxicity induced by drug alone treatment. Sensitization enhancement ratios (SERs) and standard deviations for survival curves were determined at 10% cell survival. Each SER was calculated by dividing the radiation dose to induce 10% cell survival in the absence of radiosensitizer with the radiation dose to induce 10% cell survival in the presence of radiosensitizer.
The updated programs developed by Dr. N. Albright (San Rafael, Calif.) (Albright, N., Radiat. Res., 112:331–340 (1987)) were used for curve fitting for MCF-7 cells with the linear quadratic (LQ) and the single hit multi-target (SHMT) models. Both the LQ and SHMT models gave qualitatively good fits. The fit with the SHMT model was used for the present study.

[2] = system: human breast cancer MCF-7 cells; assay: Clonogenic survival assay, drug alone (cytotoxicity) in MCF-7 cells; format: cell-based; conditions: 2 μg/ml for 1 h, read graphically from FIG. 2
Experimental: as §1, §2

[3] = system: camptothecin-resistant, TOP1 mutant DC3F/C-10 cells; conditions: for Cytotoxic effect: DC3F/C10 cells
Experimental: Clonogenic Survival Assay. For a typical clonogenic survival experiment, stock cultures of exponentially growing cells were trypsinized, rinsed, and plated (5×10^5 cells per dish for DC3F and DC3F/C-10 cells; 1×10^6 cells for MCF-7 cells) into 100-mm petri dishes and incubated at 37° C. 18–24 h prior to experimental studies.
Following various experimental protocols with drug incubation and irradiation, cells were trypsinized, rinsed, counted, and plated for […] colony formation. Depending on the anticipated survival level, 10^2 to 10^5 cells were plated per dose point. When higher cell numbers were plated, large petri dishes were used to avoid possible cell-density effect (100-mm instead of 60-mm petri dishes for cell number≧5×10^4). Depending on the treatment protocols, an equivalent amount of DMSO was added into each of the control radiation alone dishes (final DMSO concentration <0.1%).
Following seven to fourteen days of incubation, colonies were fixed with methanol/acetic acid (3:1), stained with crystal violet. Colonies consisting of >50 cells were counted. All survival points were done in triplicate, and experiments were conducted a minimum of two times. Error bars shown in the figures represent standard deviations (SD) and are shown when larger than the symbol.
The DC3F/C-10 cell line was selected from the Chinese Hamster lung fibroblast DC3F cell line in the presence of 1 μM of camptothecin (Albright, N., Radiat. Res., 112:331–340 (1987), and Chen, Y. N., J. Biol. Chem., 265:10073–10080 (1990)). […] In an attempt to determine the importance of TOP1 in mediating the cytotoxic and radiosensitizing effects by INDO derivatives, clonogenic survival assays were performed in DC3F and DC3F/C10 cells.

purified human TOP1 = target: T1, purified human TOP1 (Homo sapiens, UniProt P11387); assay: In vitro drug-stimulated TOP1 cleavage assay (pHOT1 plasmid nicking); format: biochemical; design: key to TOP1-mediated DNA cleavage: +++: high activity; ++: modest activity; +: low activity; conditions: for TOP1-mediated DNA cleavage: in vitro, based on FIG. 4B and 4C; for Potency in inducing TOP1-mediated DNA cleavage (nicking of pHOT1): purified human TOP1, FIG. 4, 4C
T1 construct: purchased TopoGEN, Inc. (Columbus, Ohio)
T1 sequence (P11387 1-765): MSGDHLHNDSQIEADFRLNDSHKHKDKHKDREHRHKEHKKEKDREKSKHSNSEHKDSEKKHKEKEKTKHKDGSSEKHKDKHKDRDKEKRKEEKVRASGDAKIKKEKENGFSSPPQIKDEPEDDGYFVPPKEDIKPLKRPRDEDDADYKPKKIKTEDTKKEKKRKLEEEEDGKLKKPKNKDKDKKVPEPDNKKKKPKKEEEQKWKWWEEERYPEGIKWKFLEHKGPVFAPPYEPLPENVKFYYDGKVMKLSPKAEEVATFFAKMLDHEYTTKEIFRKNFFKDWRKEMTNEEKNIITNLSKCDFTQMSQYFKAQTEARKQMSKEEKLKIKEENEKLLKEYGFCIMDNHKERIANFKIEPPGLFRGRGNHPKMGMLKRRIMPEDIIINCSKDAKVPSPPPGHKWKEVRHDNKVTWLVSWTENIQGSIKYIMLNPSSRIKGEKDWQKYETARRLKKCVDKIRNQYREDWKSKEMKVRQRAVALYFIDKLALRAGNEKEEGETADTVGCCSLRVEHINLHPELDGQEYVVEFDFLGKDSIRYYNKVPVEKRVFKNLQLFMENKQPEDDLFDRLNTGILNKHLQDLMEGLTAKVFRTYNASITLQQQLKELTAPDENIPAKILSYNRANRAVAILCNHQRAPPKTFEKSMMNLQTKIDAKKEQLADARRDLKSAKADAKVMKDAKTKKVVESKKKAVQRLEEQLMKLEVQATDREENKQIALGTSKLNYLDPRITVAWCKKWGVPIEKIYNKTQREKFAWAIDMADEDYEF
Experimental: In vitro drug-stimulated TOP1 cleavage assay. Drug-stimulated DNA cleavage assay using purified human TOP1 was performed according to the protocol provided by TopoGEN Inc. (Columbus, Ohio) with modifications.
Briefly, supercoiled pHOT1 plasmid DNA (0.2 μg) was incubated with 1 unit of human TOP1 in cleavage buffer (50 mM Tris, pH 7.8, 50 mM KCl, 10 mM MgCl2, 1 mM dithiothreitol, 1 mM EDTA) in the presence of varying concentrations of the drug under study. Following a 30-min incubation at 37° C., the reactions were terminated by adding SDS to 1.0% and proteinase K to 200 μg/ml. The proteinase K treatment continued at 37° C. for 1 h. The sample was then mixed with loading dye (containing sucrose and bromphenol blue) and separated in 1% agarose gel in 0.08 M Tris-phosphate, 0.008 M EDTA, pH 8.0 buffer at room temperature for 16 h.
The gel was initially stained with ethidium bromide ([…]), washed and photographed under UV light. In order to separate the “nicked” from the “relaxed” DNA population, the gel was further run for 4 h in the presence of ethidium bromide before being photographed again under UV light. The photograph was scanned and the intensity of the nicked DNA of each lane was measured using the ImageJ program obtained from the National Institutes of Health (web site: rsb.info.nih.gov/ij/). The intensity of the nicked band of each lane was plotted after the background intensity (pHOT1+TOP1 lane) was subtracted.

[4] = system: human MCF-7, Chinese hamster CHO and DC3F cells; assay: Cytotoxicity (LD50) by clonogenic survival assays in three cell lines; format: cell-based; conditions: 1 h drug treatment; MCF-7, CHO and DC3F cells
Experimental: as §1, §2
We investigated the relationship between the TOP1-mediated DNA damage and the cytotoxic and radiosensitizing effects induced by the six INDO derivatives. The cytotoxicity of various INDO derivatives was determined by exposing logarithmically growing human MCF-7, Chinese hamster CHO and DC3F cells to the individual drug for 1 hr, followed by clonogenic survival assays.

| Compound | ER (SER per footnote c, sensitization enhancement ratio) [1] | Dq (width of the shoulder of the radiation survival curve) [1] | Induction of RS / enhancement of radiocytotoxicity [1] | RT dose (Gy) at 10% survival [1] | Percent of cell survival without RT [2] | Cytotoxic effect [3] | TOP1-mediated DNA cleavage (purified human TOP1) | Potency in inducing TOP1-mediated DNA cleavage (nicking of pHOT1) (purified human TOP1) | Cytotoxicity (based on LD50) [4] | RR (relative resistance) [3] | Relative resistance of DC3F/C10 cells to the cytotoxic effect [3] | Enhancement of radiocytotoxicity [1] |
| --- | --- | --- | --- | --- | --- | --- | --- | --- | --- | --- | --- | --- |
| CO[C@H]1[C@H](O)[C@@H](O)[C@H](n2c3c(Cl)cccc3c3c4c(c5c6cccc(Cl)c6[nH]c5c32)C(=O)NC4=O)O[C@@H]1CO [F1, rebeccamycin] | 1.9 | drastically reduced | induction of RS was observed | 3.8 Gy | 94 ± 8% | lack of cytotoxic effect | + | less potent group | ++ (modest activity, LD50 >4 μg/ml but ≦10 μg/ml) |  |  |  |
| COC1C(CO)OC(n2c3ccccc3c3c4c(c5c6ccccc6[nH]c5c32)C(=O)OC4=O)C(O)C1O (stereo not drawn) [F5] | 1.7 | drastically reduced | induction of RS was observed | 4.2 Gy | 98 ± 2% | lack of cytotoxic effect | + | less potent group | + (low activity, LD50 >10 μg/ml) |  |  |  |
| COC1C(CO)OC(n2c3ccccc3c3c4c(c5c6ccccc6[nH]c5c32)C(=O)N(O)C4=O)C(O)C1O (stereo not drawn) [F7] | 1.7 | drastically reduced | induction of RS was observed | 4.2 Gy | 98 ± 2% |  | +++ | equivalent activity as camptothecin | ++ (modest activity, LD50 >4 μg/ml but ≦10 μg/ml) | >5.0 | more than 5 fold |  |
| COC1C(CO)OC(n2c3c(Cl)cccc3c3c4c(c5c6cccc(Cl)c6[nH]c5c32)C(=O)N(C)C4=O)C(O)C1O (stereo not drawn) [F43] | 1.0 |  | do not enhance radiocytotoxicity | 7.0 Gy | 95 ± 5% | lack of cytotoxic effect | + | less potent group | + (low activity, LD50 >10 μg/ml) |  |  | do not enhance radiocytotoxicity |
| COC1C(CO)OC(n2c3ccccc3c3c4c(c5c6ccccc6[nH]c5c32)C(=O)N(C)C4=O)C(O)C1O (stereo not drawn) [F44] | 1.0 |  | do not enhance radiocytotoxicity | 6.9 Gy | 100 ± 2% |  | ++ | less potent group | +++ (high activity, LD50 ≦4 μg/ml) | 2.5 | 2.5 fold | do not enhance radiocytotoxicity |
| COC1C(CO)OC(n2c3ccccc3c3c4c(c5c6ccccc6[nH]c5c32)C(=O)NC4=O)C(O)C1O (stereo not drawn) [F71] | 1.0 |  | do not enhance radiocytotoxicity | 7.2 Gy | 85 ± 10% |  | +++ | equivalent activity as camptothecin | +++ (high activity, LD50 ≦4 μg/ml) | 2.7 | 2.7 fold | do not enhance radiocytotoxicity |
